This is an account of results in patent publication US8633245B2, “PAI-1 inhibitor” (Institute of Medicinal Molecular Design, Inc., priority 2008, dated 2014).

Read-outs that look alike come from different tables or passages of the source.

The target in this test is T1, recombinant human PAI-1 (Homo sapiens, UniProt P05121).
T1 construct: purchased Molecular Innovations, Inc
In words: Test Example 2: human PAI-1 inhibitory activity (tPA fluorogenic substrate, pH 7.4 HEPES buffer). It is filed as biochemical. As for the experimental part:
0.1 M HEPES, 0.1 M NaCl. 1 mM EDTA. 0.1% Polyethylene glycol 8,000 (Hampton Research Corporation),
2 mM Dimethyldecylphoshine oxide [Apo-10] (Fluka Corporation)

[1] abbreviates: human PAI-1, compound concentration 0.1 μM.
Where [2] appears, read: human PAI-1, compound concentration 0.3 μM.
Setting [3] is: human PAI-1, compound concentration 1 μM.
The mark [4] stands for this setting: human PAI-1, compound concentration 3 μM.
Where [5] appears, read: human PAI-1, compound concentration 10 μM.
Where [6] appears, read: human PAI-1, compound concentration 25 μM.
[7] abbreviates: human PAI-1, calculated from the inhibition rates.

T1 sequence (P05121 24-402): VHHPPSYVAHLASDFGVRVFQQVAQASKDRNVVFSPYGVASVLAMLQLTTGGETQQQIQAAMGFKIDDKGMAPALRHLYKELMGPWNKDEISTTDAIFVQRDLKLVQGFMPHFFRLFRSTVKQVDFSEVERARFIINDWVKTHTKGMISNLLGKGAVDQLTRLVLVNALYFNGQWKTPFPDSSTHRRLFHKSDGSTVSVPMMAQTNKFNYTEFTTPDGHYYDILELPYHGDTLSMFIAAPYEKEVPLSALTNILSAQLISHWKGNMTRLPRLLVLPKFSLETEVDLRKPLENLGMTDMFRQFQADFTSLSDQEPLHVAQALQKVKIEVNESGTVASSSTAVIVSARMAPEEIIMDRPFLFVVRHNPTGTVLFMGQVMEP

With `O=C(O)CCc1ccc(-c2ccc(OC(F)(F)F)cc2)cc1OCCCSc1ccccc1` [Compound 508], the “Inhibition Rate of PAI-1 Activity (%)” value is, setting by setting: under setting [1], 18%; under setting [2], 9%; under setting [3], 48%; under setting [4], 98%.
Turning to `CCCCCN(C(=O)C(=O)O)c1cc(-c2ccc(OC(F)(F)F)cc2)ccc1OCCCOc1ccccc1` [Compound 657], the “Inhibition Rate of PAI-1 Activity (%)” value is reported as 15% under setting [1], 20% under setting [2], 99% under setting [3] and greater than 99% under setting [4].
Consider `CC(C)(C)c1ccc(-c2ccc(CCC(=O)O)c(Oc3ccc(OC(F)(F)F)cc3)c2)cc1` [Compound 480], for which the “Inhibition Rate of PAI-1 Activity (%)” value under setting [1] turned out to be 17%, the “Inhibition Rate of PAI-1 Activity (%)” value under setting [2] stood at 22%, the “Inhibition Rate of PAI-1 Activity (%)” value under setting [3] was 80% and the “Inhibition Rate of PAI-1 Activity (%)” value under setting [4] is listed as greater than 99%.
With `Cc1cc(C)cc(Oc2cc(-c3ccc(C(C)(C)C)cc3)ccc2CCC(=O)O)c1` [Compound 499], the “Inhibition Rate of PAI-1 Activity (%)” value under setting [1] is given as 15%, the “Inhibition Rate of PAI-1 Activity (%)” value under setting [2] was 14%, the “Inhibition Rate of PAI-1 Activity (%)” value under setting [3] was 77% and the “Inhibition Rate of PAI-1 Activity (%)” value under setting [4] is reported as 98%.
For `CCCCOc1cccc(Oc2cc(-c3ccc(OC(F)(F)F)cc3)ccc2CCC(=O)O)c1` [Compound 472], the “Inhibition Rate of PAI-1 Activity (%)” value is on record as 15% under setting [1], 14% under setting [2], 71% under setting [3] and greater than 99% under setting [4].
In the case of `CC(C)(C)c1ccc(Oc2cc(-c3ccc4ccccc4c3)ccc2CCC(=O)O)cc1` [Compound 470], the “Inhibition Rate of PAI-1 Activity (%)” value is recorded as 3% under setting [1], 16% under setting [2], 87% under setting [3] and greater than 99% under setting [4].
`CC(C)(C)c1ccc(COc2ccc(N3CCN(c4ccc(OC(F)(F)F)cc4)CC3)cc2/C=C/C(=O)O)cc1` [Compound 418]: the “Inhibition Rate of PAI-1 Activity (%)” value reads like this: under setting [3], 73%; under setting [4], 95%; under setting [5], 94%; under setting [6], 90%.
As for `CC(C)(C)c1ccc(Oc2ccc(Nc3ccc(OC(F)(F)F)cc3)cc2CCC(=O)O)cc1` [Compound 432], the “Inhibition Rate of PAI-1 Activity (%)” value is, setting by setting: under setting [1], 4%; under setting [2], 0%; under setting [3], 25%; under setting [4], 97%.
`CC(C)(C)c1cccc(Oc2cc(-c3ccc(OC(F)(F)F)cc3)ccc2CCC(=O)O)c1` [Compound 336]: the IC50 under setting [7] was 1080 nM. The inhibition at 3 µM (read-out: Inhibition Rate of PAI-1 Activity (%)) was greater than 99%.
For `CCCCCOc1ccc(-c2cccc(OC(F)(F)F)c2)cc1N(CCCCc1ccccc1)C(=O)C(=O)O` [Compound 391], the IC50 came out at 780 nM.
For `CCCCc1ccc(-c2ccc(OCC(=O)O)c(Oc3ccc(C(C)(C)C)cc3)c2)cc1` [Compound 443], the “Inhibition Rate of PAI-1 Activity (%)” value runs as follows: under setting [1], 7%; under setting [2], 8%; under setting [3], 76%; under setting [4], greater than 99%.
Take `CCCCC(Oc1cc(-c2cccc(C)c2)ccc1Oc1ccc(C(C)(C)C)cc1)C(=O)O` (stereo not drawn) [Compound 317]: the IC50 under setting [7] is 650 nM.
Take `CCCCCOc1cc(N(CCCCc2ccccc2)C(=O)C(=O)O)ccc1-c1ccc(OC(F)(F)F)cc1` [Compound 654]: the “Inhibition Rate of PAI-1 Activity (%)” value runs as follows: under setting [1], 4%; under setting [2], 19%; under setting [3], greater than 99%; under setting [4], greater than 99%.
In the case of `CCCCCCOc1ccc(-c2ccc(OC(F)(F)F)cc2)cc1OC(CCCCCC)C(=O)O` (stereo not drawn) [Compound 429], the “Inhibition Rate of PAI-1 Activity (%)” value stood at 7% under setting [1], 9% under setting [2], 93% under setting [3] and 95% under setting [4].
On to `CCCCCOc1cc(-c2ccc(OC(F)(F)F)cc2)cc(OCc2ccc(C(C)(C)C)cc2)c1OCC(=O)O` [Compound 301], for which, under setting [7], the IC50 is 470 nM.
With `CCCCCCCCCCOc1ccc(-c2ccc(OC(F)(F)F)cc2)cc1N(CCCCc1ccccc1)C(=O)C(=O)O` [Compound 365], the IC50 was 110 nM.
Consider `CCCCN(CC(=O)O)c1cc(-c2ccc(OC(F)(F)F)cc2)ccc1Oc1ccc(C(C)(C)C)cc1` [Compound 428], for which the “Inhibition Rate of PAI-1 Activity (%)” value by setting is: under setting [1], 18%; under setting [2], 36%; under setting [3], 92%; under setting [4], 94%.
For `CCCCC(CC(=O)O)c1cc(-c2ccc(OC(F)(F)F)cc2)ccc1Oc1ccc(C(C)(C)C)cc1` (stereo not drawn) [Compound 422], in that order: 12%, 24%, 72% and greater than 99%.
`CCCCCCCCCCN(C(=O)C(=O)O)c1ccc(-c2ccc(OC(F)(F)F)cc2)cc1` [Compound 669]: the “Inhibition Rate of PAI-1 Activity (%)” value reads like this: under setting [1], 28%; under setting [2], 34%; under setting [3], greater than 99%; under setting [4], greater than 99%.
For `CCCCCOc1cc(-c2cccc(OC(F)(F)F)c2)ccc1N(CCCCc1ccccc1)C(=O)C(=O)O` [Compound 393], the IC50 was 690 nM.
As to `CCC(C)(C)c1ccc(Oc2cc(-c3ccc(OC(F)(F)F)cc3)ccc2CCC(=O)O)cc1` [Compound 475], the “Inhibition Rate of PAI-1 Activity (%)” value by setting is: under setting [1], 4%; under setting [2], 27%; under setting [3], 94%; under setting [4], greater than 99%.
On to `CCCCCOc1ccc(-c2ccc(C(F)(F)F)cc2)cc1N(CCCCc1ccccc1)C(=O)C(=O)O` [Compound 390], for which the IC50 was found to be 650 nM.
As to `CCCCC(Oc1ccc(-c2ccc(OC(F)(F)F)cc2)cc1OCCCCc1ccccc1)C(=O)O` (stereo not drawn) [Compound 311], under setting [7], the half-maximal inhibitory concentration (IC50) was 580 nM.
For `CC(C)Oc1ccc(-c2ccc(OCC(=O)O)c(Oc3ccc(C(C)(C)C)cc3)c2)cc1` [Compound 460], the “Inhibition Rate of PAI-1 Activity (%)” value is reported as 1% under setting [1], 8% under setting [2], 63% under setting [3] and greater than 99% under setting [4].
Consider `CC(C)(C)c1ccc(COc2ccc(NS(=O)(=O)c3ccc(OC(F)(F)F)cc3)cc2CCC(=O)O)cc1` [Compound 415], for which the “Inhibition Rate of PAI-1 Activity (%)” value is listed as 41% under setting [3], 98% under setting [4], greater than 99% under setting [5] and greater than 99% under setting [6].
`CC(C)(C)c1ccc(COc2ccc(N3CCN(c4ccc(OC(F)(F)F)cc4)CC3)cc2CCC(=O)O)cc1` [Compound 419]: the “Inhibition Rate of PAI-1 Activity (%)” value is 41% under setting [3], 93% under setting [4], 98% under setting [5] and greater than 99% under setting [6].
